Reference: US20020150901A1, “Novel nucleic acids, polypeptides, methods of making, and uses thereof” (priority 2000, published 2002)
Entries after “also recorded” stand apart in the source; their conditions may differ.

Legend:
Assay type in all cases: cell-based
[1] = test system: "dummy" transfected control COS-7 cells; experiment: Aequorin bioluminescence assay, "dummy" transfected control COS-7 cells (no leukotriene receptor); conditions: 200 nM agonist, COS-7 cells with "dummy" insert and aequorin
Description: (§1) The photoprotein aequorin, originally isolated from luminescent jellyfish, has proven to be a highly sensitive and quantitative bioluminescence Ca^2+ indicator in cells.
(§2) The aequorin complex contains a 22,000 MW apoaequorin protein, oxygen and the luminophore, coelenterazine. When three Ca^2+ ions bind to this complex, coelenterazine is oxidized to coelenteramide, releasing carbon dioxide and light (emission maximum ˜466 nm). Aequorin has a broad detection range, allowing the measurement of Ca^2+ concentrations from ˜0.1 μM to >100 μM.
(§3) The HUMAN CysLT2 GPCR and apoaequorin cDNAs were transiently co-expressed in cells (the aequorin is targeted for expression in mitochondria). Once cells have been transfected with these expression vectors, they are incubated in a medium containing cell-permeant coelenterazine which reconstitutes the aequorin complex. After formation of the active aequorin complex, intracellular Ca^2+ release caused by activation of the HUMAN CysLT2 GPCR is measured by assaying cells for light production using a luminometer.
(§4) COS-7 cells were trypsinized and plated at 1.5×10^5 cells/well in 6 well tissue culture plates. The cells were grown overnight at 37° C. in DMEM supplemented with 10% FBS, 1% glutamine and 1% non essential amino acids. […]

human CysLT1 receptor = molecular target: T1, human CysLT1 receptor (Homo sapiens, UniProt Q9Y271); experiment: Aequorin bioluminescence assay of intracellular calcium release, COS-7 cells expressing human CysLT1; conditions: 200 nM antagonist injected 10 seconds before 200 nM LTC4 or LTD4
T1 construct: expressed in transfected cells; host or cells: COS-7
T1 sequence (Q9Y271 1-337): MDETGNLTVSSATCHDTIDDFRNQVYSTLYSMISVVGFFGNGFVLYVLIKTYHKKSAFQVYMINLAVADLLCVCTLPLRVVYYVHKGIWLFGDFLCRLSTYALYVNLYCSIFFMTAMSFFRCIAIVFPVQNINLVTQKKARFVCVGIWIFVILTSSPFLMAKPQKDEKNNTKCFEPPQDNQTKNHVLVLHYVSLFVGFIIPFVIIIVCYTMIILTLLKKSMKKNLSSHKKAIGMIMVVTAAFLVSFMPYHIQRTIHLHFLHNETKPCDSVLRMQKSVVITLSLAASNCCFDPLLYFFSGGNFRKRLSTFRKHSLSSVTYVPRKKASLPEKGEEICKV

HUMAN CysLT2 GPCR = molecular target: T2, HUMAN CysLT2 GPCR (Homo sapiens, UniProt Q9NS75); experiment: Aequorin bioluminescence assay of intracellular calcium release, COS-7 cells expressing HUMAN CysLT2 GPCR; conditions: 200 nM antagonist injected 10 seconds before 200 nM LTC4 or LTD4
T2 construct: expressed in transfected cells; host or cells: COS-7
T2 sequence (Q9NS75 1-346): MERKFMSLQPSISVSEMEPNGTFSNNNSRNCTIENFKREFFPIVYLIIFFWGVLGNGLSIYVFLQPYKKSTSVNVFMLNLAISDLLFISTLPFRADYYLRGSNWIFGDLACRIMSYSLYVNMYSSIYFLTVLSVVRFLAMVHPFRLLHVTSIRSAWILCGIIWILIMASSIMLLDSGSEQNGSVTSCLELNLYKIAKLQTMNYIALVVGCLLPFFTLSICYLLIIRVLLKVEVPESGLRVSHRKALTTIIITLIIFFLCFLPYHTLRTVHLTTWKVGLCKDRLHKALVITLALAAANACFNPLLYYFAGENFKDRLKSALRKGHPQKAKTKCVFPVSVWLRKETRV
Description: as §1, §2, §3, §4

| block of LTC4 or LTD4 induced receptor activation by antagonist (human CysLT1 receptor) | Compound | aequorin activation by agonist [1] | block of LTC4 or LTD4 induced receptor activation by antagonist (HUMAN CysLT2 GPCR) |
| --- | --- | --- | --- |
| – | CCCCC/C=C\C\C=C/C=C/C=C/[C@@H](SC[C@H](NC(=O)CC[C@H](N)C(=O)O)C(=O)NCC(=O)O)[C@@H](O)CCCC(=O)O [LTC4] | not on the “dummy” transfected control cells | – |
| – | CCCCC/C=C\C\C=C/C=C/C=C/[C@@H](SC[C@H](N)C(=O)NCC(=O)O)[C@@H](O)CCCC(=O)O [LTD4] | not on the “dummy” transfected control cells | – |
| effectively blocked | CN(C)C(=O)CCSC(SCCC(=O)O)c1cccc(/C=C/c2ccc3ccc(Cl)cc3n2)c1 (stereo not shown) [MK571] | – | neither antagonist significantly inhibited; also recorded: failed to block; also recorded: resistance to inhibition |
